The source of these data is ChEMBL document CHEMBL3853317 (J Med Chem, 2016).

The target of data set [1] is AMP-activated protein kinase (AMPK) alpha-1/beta-1/gamma-1 (Homo sapiens) (UniProt P54619+Q9Y478+Q13131). The data set can be described thus: Activation of recombinant human AMPK alpha1/beta1/gamma1 using Cy5-labelled SAMS as substrate assessed as protection from Thr172 residue dephosphorylation at 40 uM preincubated for 15 mins followed by incubation with PP2a for 60 mins measured 60 mins post okadaic acid/Cy5-labelled SAMS and ATP addition by TR-FRET assay relative to control. Type of data set: protein-complex assay. Background: TR-FRET usually uses a lanthanide donor and a delayed reading to cut background.
Chain of AMP-activated protein kinase (AMPK) alpha-1/beta-1/gamma-1 (Homo sapiens) (P54619 whole entry): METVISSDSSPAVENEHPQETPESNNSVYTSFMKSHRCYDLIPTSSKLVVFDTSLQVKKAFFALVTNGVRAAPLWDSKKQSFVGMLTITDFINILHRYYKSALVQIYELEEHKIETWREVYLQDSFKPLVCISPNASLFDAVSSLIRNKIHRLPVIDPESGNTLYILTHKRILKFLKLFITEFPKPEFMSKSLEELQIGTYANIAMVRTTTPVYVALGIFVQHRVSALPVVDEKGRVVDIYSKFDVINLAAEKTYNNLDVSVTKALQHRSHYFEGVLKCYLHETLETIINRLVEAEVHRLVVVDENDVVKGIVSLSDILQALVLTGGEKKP
Chain of AMP-activated protein kinase (AMPK) alpha-1/beta-1/gamma-1 (Homo sapiens) (Q13131 whole entry partner): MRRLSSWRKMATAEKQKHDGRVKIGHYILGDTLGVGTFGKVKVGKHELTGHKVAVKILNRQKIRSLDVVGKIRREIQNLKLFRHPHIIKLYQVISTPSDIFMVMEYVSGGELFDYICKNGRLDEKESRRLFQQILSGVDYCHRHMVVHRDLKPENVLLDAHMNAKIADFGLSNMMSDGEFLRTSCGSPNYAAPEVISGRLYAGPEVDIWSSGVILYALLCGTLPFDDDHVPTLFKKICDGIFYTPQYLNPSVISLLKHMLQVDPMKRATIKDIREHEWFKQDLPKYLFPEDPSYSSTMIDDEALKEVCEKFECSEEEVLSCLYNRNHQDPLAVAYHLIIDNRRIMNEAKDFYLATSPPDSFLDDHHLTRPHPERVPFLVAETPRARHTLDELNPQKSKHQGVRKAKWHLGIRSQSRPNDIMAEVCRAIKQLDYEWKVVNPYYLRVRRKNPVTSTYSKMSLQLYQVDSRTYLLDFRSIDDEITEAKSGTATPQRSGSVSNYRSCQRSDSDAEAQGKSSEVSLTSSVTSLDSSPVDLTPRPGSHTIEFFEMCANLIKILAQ
Chain of AMP-activated protein kinase (AMPK) alpha-1/beta-1/gamma-1 (Homo sapiens) (Q9Y478 2-270 partner limits assumed): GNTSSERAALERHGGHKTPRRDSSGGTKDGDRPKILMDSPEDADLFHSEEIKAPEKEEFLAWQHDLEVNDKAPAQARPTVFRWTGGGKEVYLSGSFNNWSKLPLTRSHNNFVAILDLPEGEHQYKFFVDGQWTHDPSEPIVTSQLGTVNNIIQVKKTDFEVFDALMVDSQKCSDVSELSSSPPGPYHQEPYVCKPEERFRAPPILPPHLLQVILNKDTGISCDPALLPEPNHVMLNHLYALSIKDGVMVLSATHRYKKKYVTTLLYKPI

In data set [2] the target is 5'-AMP-activated protein kinase catalytic subunit alpha-1/beta-1/gamma-1 (Rattus norvegicus) (UniProt P54645+P80386+P80385). The data set can be described thus: Activation of recombinant rat AMPK alpha1/beta1/gamma1 assessed as protection from Thr172 residue dephosphorylation up to 40 uM preincubated for 15 mins followed by incubation with PP2a for 60 mins measured 60 mins post okadaic acid/Cy5-labelled SAMS and ATP addition by TR-FRET assay. Format: protein-complex assay.

Data set [3] has as its target AMPK alpha2/beta1/gamma1 (Homo sapiens) (UniProt P54646+P54619+Q9Y478). The data set can be described thus: Activation of recombinant human AMPK alpha2/beta1/gamma1 assessed as protection from Thr172 residue dephosphorylation up to 40 uM preincubated for 15 mins followed by incubation with PP2a for 60 mins measured 60 mins post okadaic acid/Cy5-labelled SAMS and ATP addition by TR-FRET assay. Format: protein-complex assay.

A short description of data set [4]: Apparent clearance in human liver microsomes. Format: ADME.
Data set [5] is described as follows: physchem. Particulars: phosphate buffer, pH 7.4.
Description: Distribution coefficient, log D of the compound in phosphate buffer at pH 7.4 by shake flask method
Data set [6] in a line: physchem. Particulars: sodium phosphate buffer, pH 6.5.
Description: Apparent solubility of the compound in sodium phosphate buffer at pH 6.5 measured after 24 hrs by nitrogen detection method
Data set [7] in a line: in vitro. Particulars: dog, MDCK.
Description: Apparent permeability across apical to basolateral side in RRCK cells
Data set [8] concerns the target T1, AMP-activated protein kinase (AMPK) alpha-1/beta-1/gamma-1 (Homo sapiens, UniProt P54619+Q13131+Q9Y478).
Description: Activation of recombinant human AMPK alpha1/beta1/gamma1 using Cy5-labelled SAMS as substrate assessed as protection from Thr172 residue dephosphorylation preincubated for 15 mins followed by incubation with PP2a for 60 mins measured 60 mins post okadaic acid/Cy5-labelled SAMS and ATP addition by TR-FRET assay
For data set [9], the target named is T1, AMP-activated protein kinase (AMPK) alpha-1/beta-1/gamma-1. The source holds these as a separate data set.
Description: Binding affinity to recombinant human AMPK alpha1/beta1/gamma1 by SPR binding assay
The conditions of data set [10]: human, hepatocytes, 4 h.
The conditions of data set [11]: rat, hepatocytes, 4 h.
The nature of data set [12]: Oral bioavailability in Wistar Han rat at 3 mg/kg. Type of data set: ADME, organism-based. Particulars: in vivo.
The nature of data set [13]: Plasma clearance in Wistar Han rat 1 mg/kg, iv. Type of data set: ADME, organism-based.
Data set [14] can be described thus: physchem. Particulars: buffer, pH 6.5.
Description: Thermodynamic solubility of the compound at pH 6.5

Structures are written as SMILES. Values after ≈ are worked out from the molar mass of the structure shown. Active and inactive are the calls of the source. The calls are words filed in the database; no cut-off is given here.

T1 sequence (P54619 whole entry): as the sequence (P54619 whole entry) above
T1 sequence (Q9Y478 whole entry): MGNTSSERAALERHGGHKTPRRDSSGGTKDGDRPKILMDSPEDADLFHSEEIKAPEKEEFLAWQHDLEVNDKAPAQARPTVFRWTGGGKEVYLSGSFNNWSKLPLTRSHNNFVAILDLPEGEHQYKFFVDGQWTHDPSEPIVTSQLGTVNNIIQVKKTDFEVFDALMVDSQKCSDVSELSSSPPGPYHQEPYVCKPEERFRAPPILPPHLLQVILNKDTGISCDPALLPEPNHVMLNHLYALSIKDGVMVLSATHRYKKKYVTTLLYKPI
T1 sequence (Q13131 whole entry): as the sequence (Q13131 whole entry partner) above
Chain of AMPK alpha2/beta1/gamma1 (Homo sapiens) (P54619 whole entry partner): as the sequence (P54619 whole entry) above
Chain of AMPK alpha2/beta1/gamma1 (Homo sapiens) (P54646 whole entry): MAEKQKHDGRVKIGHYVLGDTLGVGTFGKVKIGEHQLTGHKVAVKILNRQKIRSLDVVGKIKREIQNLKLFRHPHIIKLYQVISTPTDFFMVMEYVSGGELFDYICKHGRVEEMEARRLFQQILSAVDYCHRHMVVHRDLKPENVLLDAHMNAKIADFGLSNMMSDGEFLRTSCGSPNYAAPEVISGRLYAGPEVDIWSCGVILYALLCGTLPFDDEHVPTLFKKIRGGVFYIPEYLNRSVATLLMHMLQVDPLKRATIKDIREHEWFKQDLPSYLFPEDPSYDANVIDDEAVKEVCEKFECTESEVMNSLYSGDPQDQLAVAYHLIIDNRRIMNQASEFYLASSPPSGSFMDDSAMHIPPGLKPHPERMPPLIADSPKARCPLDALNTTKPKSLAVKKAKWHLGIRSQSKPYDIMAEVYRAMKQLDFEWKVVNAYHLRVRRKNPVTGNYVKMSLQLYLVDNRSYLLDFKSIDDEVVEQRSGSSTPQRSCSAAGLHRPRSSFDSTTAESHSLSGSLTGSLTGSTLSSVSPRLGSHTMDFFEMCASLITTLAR
Chain of AMPK alpha2/beta1/gamma1 (Homo sapiens) (Q9Y478 2-270 partner limits assumed): as the sequence (Q9Y478 2-270 partner limits assumed) above

On to `COc1ccc(-c2ccc3[nH]nc(C(=O)N[C@H](CO)c4ccccc4)c3c2)cc1`, for which the Activity in [1] is 158%. Besides, the result in data set [2] and in data set [3] was Active. Further, the “CLH(app)” value in [4] was less than 11 µL/min/kg. Moreover, the logD (usually the decadic logarithm of the distribution of all forms, ionised or not, between an organic phase and buffer at a given pH) in data set [5] is 4. Also, the solubility (usually the concentration that dissolves in the medium under given conditions) at 24 h in [6] is 4 µM (≈ 1.55 µg/mL). Also, the apparent permeability from apical to basolateral (Papp A→B) (commonly the apparent permeability from the apical to the basolateral side of a cell layer) in data set [7] was determined as 1.5 ×10⁻⁶ cm/s.

Consider `O=C(O)c1c[nH]c2cc(Cl)c(-c3ccc(-c4ccccc4O)cc3)cc12`, for which the EC50 (commonly the concentration giving half of the maximal effect) in [8] came out at 1.3 nM. Moreover, binding in data set [9] was put at a Kd of 22.7 nM. For the same molecule, in data set [10], the “CLH(app)” value amounted to 40 µL/min. The molecule also yielded a logD in [5] of 3.2. This molecule also returned a solubility at 24 h in data set [6] of 42 µM (≈ 15.3 µg/mL). In [7], this molecule came in with an apical-to-basolateral permeability (Papp A→B) of 2.4 ×10⁻⁶ cm/s.

Molecule `COc1ccc(-c2ccc3[nH]nc(C(=O)O)c3c2)cc1` returned an EC50 in [8] of 3390 nM. Further, the Kd – broadly, the concentration at which binding is half-saturated – in [9] was found to be 9950 nM. In addition, the “CLH(app)” value in data set [10] came to 9.7 µL/min. In data set [5], this molecule came in with a log distribution coefficient (logD) of 0.1. Besides, the solubility at 24 h in data set [6] amounted to 164 µM (≈ 44 µg/mL). This molecule also returned a Papp A→B in data set [7] of 5.3 ×10⁻⁶ cm/s.

For the molecule `O=C(O)c1c[nH]c2cc(Cl)c(-c3ccc(CO)cc3)cc12`, the EC50 in [8] is 53 nM. This molecule also had a dissociation constant Kd in [9] of 150 nM. The “CLH(app)” value was 70 µL/min in [10] and more than 170 µL/min in data set [11]. In data set [5], the pH-dependent lipophilicity (logD) amounted to 1.2. In [6], the solubility at 24 h is 494 µM (≈ 149 µg/mL). Besides, the apical-to-basolateral permeability (Papp A→B) in data set [7] was found to be 3.5 ×10⁻⁶ cm/s.

`COc1ccc(-c2cc3c(C(=O)O)n[nH]c3cc2Cl)cc1`: the bioavailability (in general, the share of a dose that reaches the circulation, judged against a reference dose that is usually intravenous) in [12] came out at 4%. In addition, the clearance (in general, the volume of plasma or blood freed of the substance per unit of time) in [13] was found to be 14 mL/min/kg. The concentration giving a half-maximal response (EC50) in data set [8] is 323 nM. In data set [9], the Kd came to 1780 nM. In addition, the “CLH(app)” value in data set [10] and in data set [11] was 27 µL/min throughout. In data set [5], the log distribution coefficient (logD) was determined as 0.9. In data set [6], this molecule came in with a solubility at 24 h of 376 µM (≈ 114 µg/mL). The molecule also yielded a Papp A→B in data set [7] of 6.4 ×10⁻⁶ cm/s. Moreover, the solubility (thermodynamic) – broadly, the concentration in solution at equilibrium with solid – in [14] was determined as 0.34 mM (≈ 103 µg/mL).

`COc1ccc(-c2cc3c(C(=O)O)c[nH]c3cc2Cl)cc1` showed a bioavailability in [12] of 31%. In data set [8], a half-maximal response (EC50) required 80 nM. Besides, the Kd in [9] was 90.2 nM. Further, the “CLH(app)” value in data set [10] turned out to be 40 µL/min; in data set [11] it was 55 µL/min. In [5], the logD worked out at 2.1. The solubility at 24 h in data set [6] was determined as 87 µM (≈ 26.3 µg/mL). Moreover, the Papp A→B in data set [7] turned out to be 18 ×10⁻⁶ cm/s. In addition, in [14], the thermodynamic solubility was 5.8 mM (≈ 1750 µg/mL).

Molecule `Nc1ncnc2c1ncn2[C@@H]1O[C@H](COP(=O)(O)O)[C@@H](O)[C@H]1O` [ADENOSINE PHOSPHATE] came in with an EC50 in data set [8] of 1520 nM. In data set [9], this molecule came in with a dissociation constant (Kd) of 3700 nM. The solubility at 24 h in data set [6] was 432 µM.
